Experiments:
Hck = Hck (Homo sapiens, UniProt P08631); assay: In vitro kinase assay, Hck; format: biochemical; conditions: read-out: IC50 Hck, Table 1, triplicate or quadruplicate
Src F278H = Src F278H (Gallus gallus, UniProt P00523, F278H); assay: In vitro kinase assay, c-Src F278H kinase domain; format: biochemical; conditions: read-out: IC50 Src F278H; Table 2; kinase domain construct
Src E280V = Src E280V (Gallus gallus, UniProt P00523, E280V); assay: In vitro kinase assay, c-Src E280V kinase domain; format: biochemical; conditions: read-out: IC50 Src E280V; Table 2; kinase domain construct
Src F382V = Src F382V (Gallus gallus, UniProt P00523, Y382V); assay: In vitro kinase assay, c-Src 382V kinase domain; format: biochemical; conditions: read-out: IC50 Src F382V; Table 2; kinase domain construct
Src T338I = Src T338I (Gallus gallus, UniProt P00523, T338I); assay: In vitro kinase assay, c-Src T338I kinase domain; format: biochemical; conditions: read-out: IC50 Src T338I; Table 2; kinase domain construct
parental Ba/F3 cells = assay: Growth of parental Ba/F3 control cells; format: cell-based; conditions: 48 hours, media containing IL-3; up to highest concentration tested (5 μM)
[1] = system: BCR-ABL-induced phosphorylation of CrkL; assay: BCR-ABL-induced phosphorylation of CrkL in Ba/F3 cells; format: cell-based; conditions: Ba/F3 cells expressing native and mutant isoforms of BCR-ABL; data not shown

Chain of Hck (P08631 whole entry, species assumed, the tested form may be a part): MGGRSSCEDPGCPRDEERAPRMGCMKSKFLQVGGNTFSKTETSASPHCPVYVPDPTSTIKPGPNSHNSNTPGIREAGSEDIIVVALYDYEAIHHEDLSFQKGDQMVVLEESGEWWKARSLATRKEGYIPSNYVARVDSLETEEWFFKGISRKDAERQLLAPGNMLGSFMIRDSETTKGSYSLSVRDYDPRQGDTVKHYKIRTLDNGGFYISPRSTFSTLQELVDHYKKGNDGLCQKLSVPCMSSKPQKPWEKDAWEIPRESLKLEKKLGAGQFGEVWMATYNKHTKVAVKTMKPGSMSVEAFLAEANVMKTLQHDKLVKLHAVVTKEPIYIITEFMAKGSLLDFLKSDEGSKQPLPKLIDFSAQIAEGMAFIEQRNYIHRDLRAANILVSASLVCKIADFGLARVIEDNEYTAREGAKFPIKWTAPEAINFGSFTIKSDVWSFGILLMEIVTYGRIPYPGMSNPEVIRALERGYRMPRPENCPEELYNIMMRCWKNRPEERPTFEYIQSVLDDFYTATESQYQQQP

COc1ccc(Nc2ncnc(-c3cccnc3Nc3cc(NC(=O)c4ccc(CN5CCN(C)CC5)cc4)ccc3C)n2)cc1 [DSA8]
IC50 (Hck): 6.6 ± 2.3 nM
IC50 (Src F278H): 7 ± 2 nM
IC50 (Src E280V): 4 ± 1.2 nM
IC50 (Src F382V): 4.4 ± 1.7 nM
IC50 (Src T338I): 18 ± 6 nM
Growth of parental Ba/F3 control cells (parental Ba/F3 cells): minimally affected
BCR-ABL-induced phosphorylation of CrkL [1]: block
